Four compounds from US5098888A, “New heterocyclic tripeptide compounds” (Adir et Compagnie, priority 1989, dated 1992) can be followed below.

Molecules are shown by their SMILES.

What all share (type): in vivo
Data set [1] deals with mice. Kind of data set: Oxotremorine-induced tremor in mice.
The subject of data set [2] is mice. Nature of the data set: Interaction with clonidine (cerebral survival time on sudden cardiac arrest caused by MgCl2). Particulars: for antagonism of the effect of clonidine: simultaneously with clonidine.
For data set [3], the system named is synaptosomal high-affinity choline uptake (HACU). Nature of the data set: Barbiturate-induced cholinergic deficit in rats. An excerpt:
This sodium-dependent uptake normally constitutes the limiting factor in acetyl choline synthesis.

Turning to `Cn1cnc(C[C@H](NC(=O)[C@@H]2CCC(=O)N2)C(=O)N2[C@H]3CC[C@H](C3)[C@H]2C(N)=O)c1` [Example 1, (S)PyroGlu-(S)(N^.tau. -Me)His-(1S,3S,4R)ABH-NH2], in data set [1] (10 mg/kg ip), the “induction of tremor by the compound itself” value is “without itself inducing tremor”.

In the case of `NC(=O)[C@@H]1CCCN1C(=O)[C@H](Cc1c[nH]cn1)NC(=O)[C@@H]1CCC(=O)N1` [TRH, pyroglutamylhistidylprolinamide], the entries for the “antagonism of the effect of clonidine” value in data set [2] (1 mg/kg ip) and in data set [2] (3 mg/kg ip) were -20% and -80%, respectively. In data set [2] (without clonidine), the “effect on its own in the test” value is given as “without having an effect on its own”. Moreover, the inhibition of narcosis entry in data set [3] (10 mg/kg ip simultaneously with pentobarbital) is given as “does not inhibit the narcosis”. In addition, the “counteraction/inhibition of the fall in HACU induced by the barbiturate” value in data set [3] (10 mg/kg ip simultaneously with pentobarbital 60 mg/kg ip, HACU measured after 20 minutes of narcosis) was -35%. Besides, the “boosting of the tremor” value in data set [1] (3 mg/kg ip) is reported as “no longer apparent”; in data set [1] (10 mg/kg ip 30 minutes before oxotremorine 0.5 mg/kg ip, measured at peak of action), “+90%”; in data set [1] (administered orally (Example 1: 10 mg/kg)), “no boosting effect”. Moreover, in data set [1] (scopolamine 0.01 mg/kg), the “boosting effect in the presence of scopolamine” value is listed as “persists”.

In the case of `Clc1cccc(Cl)c1N=C1NCCN1` [clonidine], in data set [2] (sudden cardiac arrest caused by intravenous MgCl2), the “increase in the cerebral survival time” value was “+60%”.

With `CCCC(C)C1(CC)C(=O)NC(=O)NC1=O` (stereo not drawn) [pentobarbital], the “fall in synaptosomal high-affinity choline uptake (HACU)” value in data set [3] (60 mg/kg ip, after 20 minutes of narcosis) was -48%.
